What was measured:
Format in all cases: physicochemical
[1] = Crystallization of amorphous nanosized API in aqueous polymer solution, polymorph/crystallinity by XRD
Procedure: XRPD measurements were carried out using the Malvern PANalytical Empyrean X-ray diffractometer equipped with a Cu Kα (1.54 Å) source, MultiCore optics and a solid-state PIXcel3D detector. By using Kapton tape the samples were attached onto aluminum or polycrystalline silicon sample holders. Dried slurries were measured without further sample preparation under Kapton tape and suspensions were filtered, dried, and filters were attached with double sided tape. The samples were measured in the reflection geometry in a spinning measurement stage. The measurement range was 5-40 (°2θ). The step size and time per step values were varied depending on the counts per second obtained.
Determination of crystallization of API nanoparticles was evaluated via kinetic study of suspension. Accordingly, XRD measurement was done for suspension in different time points.
Amorphous API nanoparticles (budesonide, ezetimibe, ceritinib, and apalutamide) were added as dry powders to aqueous polymer solutions. The mixtures were either • (i) mixed with a magnetic stirrer and ultrasonicated until API was completely surrounded by water (wetted). The stirring was continued for 16-24 h at ambient temperature or • (ii) blended with a metal spatula and allowed to stay at room temperature for 18-24 h.
The suspensions formed were analyzed after 18-24 h. SEM and XRD samples were prepared as described above.

[2] = SEM of crystallized suspensions and dried products (crystal size grade, particle size); design: key: 5 = nanocrystals; 1 = large crystals
Procedure: SEM images were captured using the Zeiss Sigma 300 VP SEM instruments. Samples were dispersed into water and filtered with 0.1 μm filter. Filters were dried, transferred to SEM sample holders, and coated with a 5 nm thick layer of platinum. Amorphous API nanoparticles (budesonide, ezetimibe, ceritinib, and apalutamide) were added as dry powders to aqueous polymer solutions. The mixtures were either • (i) mixed with a magnetic stirrer and ultrasonicated until API was completely surrounded by water (wetted). The stirring was continued for 16-24 h at ambient temperature or • (ii) blended with a metal spatula and allowed to stay at room temperature for 18-24 h. The suspensions formed were analyzed after 18-24 h. SEM and XRD samples were prepared as described above. Suspension comprising nanosized APIs prepared as shown above were dried in a vacuum desiccator overnight. The solid materials were grounded to produce powders. The powders were analyzed on XRD and SEM. The powders comprising nanosized APIs were used in the stability, permeability, and dissolution tests as described above.

[3] = Stability tests of solid material (SEM, XRD, HPLC); conditions: nanosized ceritinib composition, fresh vs stored at room temperature for one month
Procedure: Solid material was weighted in separate vials (approx. 150 mg of material in each) and transferred to stability chambers. Three conditions were applied: ambient conditions (material in closed vial at RT), 25° C./65% RH and 40° C./75% RH. Material was analyzed at T0 as freshly prepared, T7 ([…]), T14 ([…]) and T30 (30 d) after the initiation of stability studies. SEM, XRD and dissolution/permeability studies were used to evaluate the crystallinity, particle size/morphology and performance of the material.

[4] = Poloxamer 407 1 wt.-%, SLS 0.2 wt.-%, mAPI 25 mg/g
[5] = Poloxamer 407 1 wt.-%, no SLS, mAPI 25 mg/g
[6] = Poloxamer 407 2.5 wt.-%, SLS 0.2 wt.-%, mAPI 25 mg/g
[7] = Poloxamer 407 2.5 wt.-%, no SLS, mAPI 25 mg/g
[8] = Poloxamer 407 5 wt.-%, SLS 0.2 wt.-%, mAPI 25 mg/g
[9] = Poloxamer 407 5 wt.-%, no SLS, mAPI 25 mg/g
[10] = Poloxamer 407 5 wt.-%, no SLS, mAPI 150 mg/g
[11] = Poloxamer 407 7.5 wt.-%, no SLS, mAPI 150 mg/g
[12] = Poloxamer 407 7.5 wt.-%, no SLS, mAPI 300 mg/g
[13] = Poloxamer 407 10 wt.-%, SLS 0.2 wt.-%, mAPI 25 mg/g
[14] = Poloxamer 407 10 wt.-%, no SLS, mAPI 25 mg/g
[15] = Poloxamer 407 15 wt.-%, SLS 0.2 wt.-%, mAPI 150 mg/g
[16] = Poloxamer 407 15 wt.-%, SLS 0.2 wt.-%, mAPI 300 mg/g
[17] = Poloxamer 407 15 wt.-%, no SLS, mAPI 150 mg/g
[18] = Poloxamer 407 15 wt.-%, no SLS, mAPI 300 mg/g
[19] = Poloxamer 407 15 wt.-%, no SLS, mAPI 450 mg/g

Polymorph ([1]; HPMC 2.5 wt.-%, no SLS, mAPI 25 mg/g): amorphous | Polymorph ([1]; PVPVA 1 wt.-%, SLS 0.2 wt.-%, mAPI 25 mg/g): amorphous | Polymorph ([1]; PVPVA 2.5 wt.-%, SLS 0.2 wt.-%, mAPI 25 mg/g): amorphous | Polymorph ([1]; PVPVA 2.5 wt.-%, no SLS, mAPI 25 mg/g): amorphous | Polymorph ([1]; PVPVA 5 wt.-%, SLS 0.2 wt.-%, mAPI 25 mg/g): amorphous | Polymorph ([1]; PVPVA 10 wt.-%, SLS 0.2 wt.-%, mAPI 25 mg/g): amorphous | Polymorph [1, 4]: Form 1 | Polymorph [1, 5]: Form 1 | Polymorph [1, 6]: Form 1 | Polymorph [1, 7]: Form 1 | Polymorph [1, 8]: Form 1 | Polymorph [1, 9]: Form 1 | Polymorph [1, 10]: Form 1 | Polymorph [1, 11]: Form 1 | Polymorph [1, 12]: Form 1 | Polymorph [1, 13]: Form 1 | Polymorph [1, 14]: Form 1 | Polymorph [1, 15]: Form 1 | Polymorph [1, 16]: Form 1 | Polymorph [1, 17]: Form 1 | Polymorph [1, 18]: Form 1 | Polymorph [1, 19]: Form 1 | Grade (SEM, visual inspection) [2, 4]: 5 | Grade (SEM, visual inspection) [2, 5]: 5 | Grade (SEM, visual inspection) [2, 6]: 5 | Grade (SEM, visual inspection) [2, 7]: 5 | Grade (SEM, visual inspection) [2, 8]: 5 | Grade (SEM, visual inspection) [2, 9]: 5 | Grade (SEM, visual inspection) [2, 10]: 3 | Grade (SEM, visual inspection) [2, 11]: 3 | Grade (SEM, visual inspection) [2, 12]: 3 | Grade (SEM, visual inspection) [2, 13]: 5 | Grade (SEM, visual inspection) [2, 14]: 5 | Grade (SEM, visual inspection) [2, 15]: 5 | Grade (SEM, visual inspection) [2, 16]: 5 | Grade (SEM, visual inspection) [2, 17]: 5 | Grade (SEM, visual inspection) [2, 18]: 5 | Grade (SEM, visual inspection) [2, 19]: 5 | Stability of composition by SEM [3]: good stability
Structure (SMILES): Cc1cc(Nc2ncc(Cl)c(Nc3ccccc3S(=O)(=O)C(C)C)n2)c(OC(C)C)cc1C1CCNCC1 [Cere, ceritinib]

Reference: patent US12303845B2, “Method for crystallization of active pharmaceutical ingredients” (Nanoform Finland Oyj, priority 2023, dated 2025)
